Measured values reported in patent publication US20170027893A1, “THIOSEMICARBAZONES INHIBITORS OF LYSOPHOSPHATIDIC ACID ACYLTRANSFERASE AND USES THEREOF” (H. LEE CANCER CENTER AND RESEARCH INSTITUTE, INC., priority 2014, published 2017).
Where two headings read alike, the source gives them in different places.

Experiments:
mTOR signaling = experiment: inhibition of mTOR signaling (FIG. 20); type: cell-based
Text: P-p7056k and p-4EBP1 are decreased by treatment at 3 micromolar or higher.

LPAAT-β [1] = molecular target: T1, LPAAT-β (Homo sapiens, UniProt O15120); experiment: DTNB (Ellman's reagent) 96-well plate screening assay of LPAAT-β enzymatic activity; type: biochemical; design: The assay utilizes full-length, recombinant, baculovirus-produced LPAAT-β; made in house
T1 sequence (O15120 24-278): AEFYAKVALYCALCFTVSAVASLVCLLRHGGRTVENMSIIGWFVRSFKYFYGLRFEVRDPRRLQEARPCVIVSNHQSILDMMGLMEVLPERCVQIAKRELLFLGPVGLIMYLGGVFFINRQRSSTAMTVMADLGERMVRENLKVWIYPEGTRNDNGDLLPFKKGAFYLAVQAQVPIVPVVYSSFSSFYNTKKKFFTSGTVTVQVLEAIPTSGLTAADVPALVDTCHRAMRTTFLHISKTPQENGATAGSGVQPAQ
Experimental: Screening with a modified screening assay in 96-well plate format for LPAAT-β enzymatic activity was performed as reported by Aguado and Campbell (Aguado et al., Characterization of a human lysophosphatidic acid acyltransferase that is encoded by a gene located in the class III region of the human major histocompatibility complex. J. Biol. Chem. 1998, 273, 4096-105).
The assay utilizes full-length, recombinant, baculovirus-produced LPAAT-β, which catalyzes the production of dioleoyl-[…] from the enzymatic substrates oleoyl-lysophosphatidic acid (LPA) and oleoyl-coenzyme A (Scheme 2). The ability of the compound to inhibit the LPAAT-β activity was assayed by the colorimetric measurement of the reaction of the free thiol group of the released coenzyme A with Ellman's reagent [5,5′-dithiobis-(2-nitrobenzoic acid) or DTNB] (Riener et al., Quick measurement of protein sulfhydryls with Ellman's reagent and with 4,4′-dithiodipyridine. Anal. Bioanal. Chem. 2002, 373, 266-76). […] A hit identified from the Life Chemicals library 6a (IC50 100 nM) was selected for further investigation.

[2] = system: MiaPaCa2 human pancreatic cancer cells; experiment: inhibition of proliferation, Alamar blue, 72 h; type: cell-based; settings: Homo sapiens, MIA PaCa-2
Experimental: The ability of selected compounds from the libraries 6, 15 and 19 to inhibit the growth of MiaPaCa2 human pancreatic cancer cells was investigated. Human pancreatic carcinoma (MiaPaCa2) cells were plated at a low confluency into 96-well tissue culture-treated plates. After allowing cells to attach and grow overnight at 37 degrees in a 5% CO2 incubator, growth medium was replaced with fresh medium (100 μl/well) containing compounds in a range from 0.1-100 μM. All treatments were made from 500× stock solutions in DMSO, and the control wells received an equivalent amount of DMSO in medium. After 72 hours of growth in the presence of the compounds, Alamar blue was added to the wells according to the manufacturer's instructions (Life Technologies, Grand Island, N.Y.) and cells were incubated in its presence for 2-3 hours. Fluorescence readings were performed using a Biotek Synergy II plate reader with […] wavelengths of 530/590 nm. […] Calculated IC50s are representative of at least three independent experiments.

RalA = RalA activation (FIG. 21); type: cell-based
Text: Therefore this inhibitor can target the RalA effector arm as well as mTOR which few compounds can do.

pancreatic cancer cells [3] = experiment: combination treatment with regorafenib (FIG. 23); type: cell-based
Text: This is important for the use of YG9-095-3 in combination with standard therapy for Kras mutant colon cancer.

[4] = body fat percentage measured by MRI in treated mice; type: in vivo; settings: after 20 days of treatment
Text: YG9-095-3 can be a useful compound for the treatment of obesity as well as cancer.

Panc-1 [5] = experiment: anchorage-independent growth in agar; type: cell-based, human; settings: Panc-1, 2-4 weeks in agar
Experimental: (§1) FIG. 3. LPAAT-β inhibitors block anchorage-independent growth of cancer cell lines. Human pancreatic (MiaPaCa2 and Panc-1), ovarian (OVCAR-5) and breast cancer (MDAMB-231) cells were plated into 3% agar containing LPAAT-β inhibitors and allowed to grow for 2-4 weeks in the presence of the compounds. […] This effect of the small molecules is similar to the effect of knockdown with LPAAT-β siRNA (nt, non-targeting; LP-1, LPAAT-β).

MDAMB-231 = experiment: anchorage-independent growth in agar; type: cell-based, human; settings: MDAMB-231, 2-4 weeks in agar
Experimental: as §1

OVCAR-5 = experiment: anchorage-independent growth in agar; type: cell-based, human; settings: OVCAR-5, 2-4 weeks in agar
Experimental: as §1

MiaPaCa2 = experiment: anchorage-independent growth in agar; type: cell-based, human; settings: MiaPaCa2, 2-4 weeks in agar
Experimental: as §1

pancreatic cancer cells [6] = experiment: cell cycle progression (FIG. 22); type: cell-based
LPAAT-β [7] = molecular target: T1, LPAAT-β; experiment: secondary thin layer chromatography (TLC) assay measuring fluorescent PA; type: biochemical; design: The assay utilizes full-length, recombinant, baculovirus-produced LPAAT-β; made in house
[8] = system: mTOR effector protein phosphorylation in MiaPaCa2 cells; experiment: mTOR effector protein phosphorylation, Western blotting; type: cell-based; settings: Homo sapiens
Text: FIG. 4. Inhibition of mTOR effector protein phosphorylation by LPAAT-β inhibitor.

[9] = system: Caspase 3 activity in IGROV-1 cells; experiment: induction of apoptosis, cleavage of fluorescent Caspase 3 substrate; type: cell-based, human; settings: IGROV-1, 48 hr
Experimental: FIGS. 5A-5B. Induction of apoptosis with 19s treatment in pancreatic and ovarian cancer cell lines. Human pancreatic (MiaPaCa2) and ovarian (IGROV-1) cells were treated for 48 hr with LPAAT-b inhibitors then harvested and the samples assayed for their ability to cleave a fluorescent Caspase 3 specific substrate, Av-DEVD-AMC (A) In addition, the samples were run on SDS-PAGE gels and Western blotted to assess the presence of the activated form of Caspase 3 (inset). MiaPaCa2 cells show 3.5-fold and IGROV-1 cells show 25-fold activation of Caspase 3 activity after treatment with 19s compared to a vehicle-treated control sample. (B) PARP cleavage in MiaPaCa2 cells treated for 72 hr with 10 μM 19s and 19p.

[10] = system: IGROV-1 ovarian cancer cells; experiment: combination with 5-FU, proliferation by Alamar blue, isobolograms; type: cell-based, human; settings: IGROV-1, 72 hr, simultaneous combination
Experimental: (§2) FIG. 6. Synergistic effect of YG9-095-3 with 5-FU in IGROV-1 ovarian cancer cells. Human ovarian and pancreatic carcinoma cell lines (IGROV-1 and OVCAR-5; Panc-1) were treated for 72 hr with 19s, 5-FU, and the two drugs in simultaneous combination. […] However, in OVCAR-5 cells, at low concentration there appears to be an additive effect of the two drugs on proliferation, but the effect becomes antagonistic at the higher concentrations of YG9-095-3.

Panc-1 [11] = experiment: as above; type: cell-based, human; settings: Panc-1, 72 hr
Experimental: as §2

OVCAR-5 cells = experiment: as above; type: cell-based, human; settings: OVCAR-5, 72 hr
Experimental: as §2

total cellular PA levels = total cellular PA levels measured by mass spectroscopy in intact cells; type: cell-based
Text: Inhibition is by more than 50%. Inhibition is greater than that seen with a known DAGK inhibitor. DAGK is an enzyme that can also increase PA levels.

Structure (SMILES): C=CCc1cc(-c2ccc(Cl)c(Cl)c2)cc(C(C)=NNC(N)=S)c1O [Compound 19s]
- concentration at which P-p70S6k and p-4EBP1 are decreased (mTOR signaling): ≥ 3 µM
- IC50 (LPAAT-β [1]; Table 4, read-out: IC50 (μm) (DTNB assay) (converted)): 0.36 ± 0.1 µM
- IC50 (LPAAT-β [1]; read-out: IC50 (μM) (DTNB assay) (converted)): 0.36 ± 0.1 µM
- IC50 [2]: 6.3 ± 2.9 µM
- inhibition of RalA activation (RalA): 50%
- combination effect with regorafenib (pancreatic cancer cells [3]): additive to synergistic inhibition
- decrease in body fat percentage compared to vehicle treated controls [4]: 50%
- inhibition of anchorage-independent growth (Panc-1 [5]): potent inhibition
- inhibition of anchorage-independent growth (MDAMB-231): potent inhibition
- inhibition of anchorage-independent growth (OVCAR-5): potent inhibition
- inhibition of anchorage-independent growth (MiaPaCa2): potent inhibition
- effect on cell cycle progression (pancreatic cancer cells [6]): S-phase arrest and accumulation
- rescue of cells from the cell cycle effect by exogenous PA (pancreatic cancer cells [6]): can be rescued
- IC50 (LPAAT-β [7]): 2.4 ± 0.7 µM
- IC50 (LPAAT-β [7]; Table 4): 2.4 ± 0.7 µM
- inhibition at 10 µM ([8]; MIA PaCa-2, read-out: inhibition of P-4E-BP 1): 76%
- inhibition at 10 µM ([8]; MIA PaCa-2, read-out: inhibition of P-AKT): 88%
- inhibition at 10 µM ([8]; MIA PaCa-2, read-out: inhibition of P-p70): 43%
- activation of Caspase 3 activity compared to vehicle-treated control [9]: 25 fold
- combination effect with 5-FU on cellular proliferation [10]: moderately synergistic
- combination effect with 5-FU on cellular proliferation (Panc-1 [11]): mildly additive to antagonistic
- combination effect with 5-FU on cellular proliferation (OVCAR-5 cells; at low concentration): additive
- combination effect with 5-FU on cellular proliferation (OVCAR-5 cells; at the higher concentrations of YG9-095-3): antagonistic
- cell membrane permeability (total cellular PA levels; concluded from treatment of intact cells): cell membrane permeable
- inhibition (reduction) of total cellular PA levels (total cellular PA levels; mass spectroscopy, intact cells): more than 50%
